A word on the melting point: it is the temperature of the solid-liquid transition.

We go through six molecules from US8389573B2, “Glycyrrhetinic acid derivatives” (Wellington Laboratories Inc., priority 2006, dated 2013).

One data set deals with SW480 colon cancer cells. In words: Cell proliferation assay in SW480 cells. The format is cell-based. The settings on record: Homo sapiens, read-out: IC50, growth inhibition / cell proliferation. The method, then: (§1) Human colon carcinoma cell lines SW480 and HT29 were provided by Dr. Stan Hamilton, M.D. Anderson Cancer Center (Houston, Tex.); SW-480 and HT-29 cells were maintained in Dulbecco's modified Eagle's medium nutrient mixture with Ham's F-12 (DMEM/Ham's F-12; Sigma-Aldrich, St. Louis, Mo.) with phenol red supplemented with 0.22% sodium bicarbonate, 0.011% sodium pyruvate, and 5% fetal bovine serum and 10 ml/l 100× antibiotic antimycotic solution (Sigma-Aldrich). Cells were maintained at 37° C. in the presence of 5% CO2.
(§2) SW480 and HT 29 Cells (2×10^4) were plated in 12-well plates, and media were replaced the next day with DMEM/Ham's F-12 media containing 2.5% charcoal-stripped FBS and either vehicle (DMSO) or the indicated ligand and dissolved in DMSO. Fresh media and compounds were added every 48 h. Cells were counted at the indicated times using a Coulter Z1 cell counter. Each experiment was done in triplicate, and results are expressed as means±S.E. for each determination

The test system of another data set is HT-29 colon cancer cells. As to the kind of experiment: Cell proliferation assay in HT-29 cells. The format is cell-based. The settings on record: Homo sapiens, read-out: IC50, growth inhibition / cell proliferation. The method, then: as §1, §2
The subject of data set [1] is PPARγ. As to the kind of experiment: PPARγ-GAL4/pGAL4 transfection and luciferase assay in SW480 cells. The settings on record: for PPARγ transactivation: up to 30 μM. The format is cell-based. The method, then:
(§3) The Gal4 reporter containing 5× Gal4 response elements (pGal4) was kindly provided by Dr. Marty Mayo (University of North Carolina, Chapel Hill, N.C.). Gal4 DBD-PPARγ construct (gPPARγ) was a gift of Dr. Jennifer L. Oberfield (GlaxoSmithKline Research and Development, Research Triangle Park, N.C.). PPRE3-luc construct contains three tandem PPREs with a minimal TATA sequence in pGL2.
(§4) Colon Cancer cell lines SW480 and HT29 (1×10^5 cells/well) were plated in 12-well plates in DMEM/Ham's F-12 media supplemented with 2.5% charcoal-stripped FBS. After 16 h, various amounts of DNA [i.e., Gal4Luc (0.4 μg), β-Gal (0.04 μg), Gal4PPAR and PPRE3-Luc (0.04 μg)] were transfected using LipofectAMINE™ reagent (Invitrogen) following the manufacturer's protocol. Five hours after transfection, the transfection mix was replaced with complete media containing either vehicle (DMSO) or the indicated ligand for 20 to 22 h. Cells were then lysed with 100 μl of 1× reporter lysis buffer, and 30 μl of cell extract was used for luciferase and […] assays. A LumiCount™ luminometer (PerkinElmer Life and Analytical Sciences) was used to quantitate luciferase and β-Gal activities, and the luciferase activities were normalized to β-Gal activity. Results are expressed as means±S.E. for at least three replicate determinations for each treatment group

The test system of data set [2] is PPARγ. In words: PPARγ-GAL4/pGAL4 transfection and luciferase assay in HT-29 cells. The format is cell-based. The method, then: as §3, §4
Data set [3] has as its system LNCaP human prostate carcinoma cells. As to the kind of experiment: Cell proliferation assay in LNCaP cells. The settings on record: 96 hr, read-out: IC50, inhibition of LNCaP cell growth. The format is cell-based. The method, then:
Cell lines: LNCaP human prostate carcinoma cells were obtained from American Type Culture Collection (Manassas, Va.). Fetal bovine serum was obtained from JRH Biosciences, Lenexa, Kans. LNCaP cells were maintained in RPMI 1640 (Sigma Chemical, St. Louis, Mo.) supplemented with 0.22% sodium bicarbonate, 0.011% sodium pyruvate, 0.45% glucose, 0.24% HEPES, 10% FBS, and 10 mL/L of 100× antibiotic/antimycotic solution (Sigma). Cells were maintained at 37° C. in the presence of 5% CO2.
Cell Proliferation and DNA Fragmentation Assays: LNCaP prostate cancer cells (2×10^4 per well) were added to 12-well plates and allowed to attach for 24 hr. The medium was then changed to DMEM/Ham's F-12 media containing 2.5% charcoal-stripped FBS, and either vehicle (DMSO) or the indicated C-DIMs were added. Fresh medium and indicated compounds were added every 48 hr, and cells were then trypsinized and counted after 2, 4, and 6 days using a Coulter Z1 cell counter (Beckman Coulter, Fullerton, Calif.). Each experiment was done in triplicate, and results are expressed as means±S.E. for each set of three experiments. The DNA fragmentation assay was performed using a BioVision Apoptotic DNA ladder extraction kit (BioVision, Mountain View, Calif.) according to the manufacturer's protocol.

In data set [4] the test system is PPARγ. In words: PPARγ-GAL4/GAL4-Luc or PPRE3-Luc transactivation in LNCaP cells. Type of data set: cell-based. The settings on record: 1-5 μM. From the text: Transfections: The Gal4 reporter construct containing 5× Gal4 response elements (pGal4) was kindly provided by Dr. Marty Mayo (University of North Carolina, Chapel Hill, N.C.). The Gal4 DBD-PPARγ construct was a gift of Dr. Jennifer L. Oberfield (Glaxo Wellcome Research and Development, Research Triangle Park, N.C.). The PPRE-luc construct contains three tandem PPREs with a minimal TATA sequence linked to the luciferase gene in pGL2. The AR-luc construct containing the −5400 to +580 region of the androgen receptor promoter was provided by Dr. Donald J. Tindall (Mayo Clinic, Rochester, Minn.), and the PSA-luc construct containing the 5.8-kilobase region of the PSA promoter was provided by Dr. Hong-Wu Cheng (University of California, Davis, Calif.). LNCaP cells (1×10^5) were seeded in 12-well plates in DMEM/Ham's F-12 media supplemented with 2.5% charcoal-stripped FBS and grown overnight. Transient transfections were performed using Lipofectamine reagent (Invitrogen) according to the protocol provided by the manufacturer. Transfection studies were performed using 0.4 μg of Gal4Luc, 0.04 μg of β-galactosidase, 0.04 μg of Gal4 DBD-PPARγ, 0.4 μg of AR-luc, and 0.3 μg of PSA-luc. Six hr after transfection, the transfection mix was replaced with complete media containing either vehicle (DMSO) or the indicated ligand for 20 to 22 hr. Cells were then lysed with 100 μl of 1× reporter lysis buffer, and 30 μl of cell extract was used for luciferase and β-galactosidase assays. A Lumicount luminometer (PerkinElmer Life and Analytical Sciences) was used to quantify luciferase and β-galactosidase activities, and the luciferase activities were normalized to β-galactosidase activity.

A further data set relates to SW480 cells. As to the kind of experiment: Western blot analysis in SW480 cells. Type of data set: cell-based, human. How it is done: SW-480 and HT-29 (3×10^5) cells were seeded in six-well plates in DMEM/Ham's F-12 media containing 2.5% charcoal-stripped FBS for 24 h and then treated with either the vehicle (DMSO) or the indicated compounds. Whole-cell lysates were obtained using high-salt buffer [50 mM HEPES, 500 mM NaCl, 1.5 mM MgCl2, 1 mM EGTA, 10% glycerol, and 1% Triton X-100, pH 7.5, and 5 μl/ml Protease Inhibitor Cocktail (Sigma-Aldrich)]. Protein samples were incubated at 100° C. for 2 min, separated on 10% SDS-PAGE at 120 V for 3 to 4 h in 1× running buffer (25 mM Tris-base, 192 mM glycine, and 0.1% SDS, pH 8.3), and transferred to polyvinylidene difluoride membrane (PVDF; Bio-Rad, Hercules, Calif.) at […] for 16 h at 4° C. in 1× transfer buffer (48 mM Tris-HCl, 39 mM glycine, and 0.025% SDS). The PVDF membrane was blocked in 5% TBST-Blotto (10 mM Tris-HCl, 150 mM NaCl, pH 8.0, 0.05% Triton X-100, and 5% nonfat dry milk) with gentle shaking for 30 min and was incubated in fresh 5% TBST-Blotto with 1:1000 (for caveolin-1, p27, p21, cyclin D1, Grp78), 1:500 (for KLF4, NAG-1), 1:250 (for PARP), and 1:5000 (for β-actin) primary antibody overnight with gentle shaking at 4° C. After washing with TBST for 10 min, the PVDF membrane was incubated with secondary antibody (1:5000) in 5% TBST-Blotto for 90 min. The membrane was washed with TBST for 10 min, incubated with 10 ml of chemiluminescence substrate (PerkinElmer) for 1.0 min, and exposed to Kodak X-OMAT AR autoradiography film (Eastman Kodak, Rochester, N.Y.).
On the technique in general: Immunoblotting shows a protein as a band on a membrane.

For data set [5], the system named is PPARγ. Conditions: SW480 cells, previous studies (22); cited from earlier work.
In data set [6] the test system is Panc28 pancreatic cancer cells. In words: Growth inhibition in Panc28 pancreatic cancer cells. Type of data set: cell-based. The settings on record: Pancreatic cancer cell.
In data set [7] the target is T1, PPARγ (Homo sapiens, UniProt P37231).
T1 construct: endogenous in cells; host or cells: SW480 colon cancer cells
T1 sequence (P37231 1-505): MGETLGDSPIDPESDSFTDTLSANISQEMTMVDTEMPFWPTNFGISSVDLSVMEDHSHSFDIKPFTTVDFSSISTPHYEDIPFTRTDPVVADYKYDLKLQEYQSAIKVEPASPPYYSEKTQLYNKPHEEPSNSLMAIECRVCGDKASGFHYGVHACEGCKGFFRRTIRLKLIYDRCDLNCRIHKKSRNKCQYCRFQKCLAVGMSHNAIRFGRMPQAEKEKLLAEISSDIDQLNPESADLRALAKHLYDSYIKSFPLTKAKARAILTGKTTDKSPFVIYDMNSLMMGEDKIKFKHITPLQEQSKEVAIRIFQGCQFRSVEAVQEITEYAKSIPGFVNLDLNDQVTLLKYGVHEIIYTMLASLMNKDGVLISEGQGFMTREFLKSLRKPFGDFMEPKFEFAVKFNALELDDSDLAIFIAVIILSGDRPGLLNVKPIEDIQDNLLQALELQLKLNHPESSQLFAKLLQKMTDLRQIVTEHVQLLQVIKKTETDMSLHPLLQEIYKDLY
In words: PPRE3-Luc transfection and luciferase assay in SW480 cells. The format is cell-based. How it is done: as §3, §4

In turn, `CC1(C)C(=O)C=C[C@]2(C)[C@H]3C(=O)C=C4[C@@H]5C[C@@](C)(C(=O)O)CC[C@]5(C)CC[C@@]4(C)[C@]3(C)CC[C@@H]12` [β-DODA, 3,11-Dioxo-18β-oleana-1,12-dien-30-oic acid] returned a melting point of 270 to 275 °C. Further, the IC50 with SW480 colon cancer cells is 25 µM. Moreover, the IC50 in the data set on HT-29 colon cancer cells fell in the range of 20 to 30 µM. Also, in the data set on PPARγ [1], the PPARγ transactivation entry is given as “did not enhance transactivation”. The “PPARγ transactivation (GAL4-PPARγ/GAL4-Luc)” value with PPARγ [2] is on record as “minimal activity”. The IC50 in [3] is over 15 µM.

The molecule `COC(=O)[C@@]1(C)CC[C@]2(C)CC[C@]3(C)C(=CC(=O)[C@@H]4[C@@]5(C)C=CC(=O)C(C)(C)[C@@H]5CC[C@]43C)[C@@H]2C1` [β-DODA-Me, Methyl 3,11-dioxo-18β-oleana-1,12-dien-30-oate] registered a melting point of 192 to 194 °C. In the data set with SW480 colon cancer cells, the IC50 was 10 µM. For the same molecule, the IC50 with HT-29 colon cancer cells fell in the range of 5 to 10 µM. For the same molecule, the PPARγ transactivation entry in the data set with PPARγ [1] is recorded as “did not enhance transactivation”. The “PPARγ transactivation (GAL4-PPARγ/GAL4-Luc)” value in the data set with PPARγ [2] is “minimal activity”. Also, the IC50 in data set [3] was 10 to 15 µM. In addition, the “PPARγ-dependent transactivation (luciferase activity)” value in the data set on PPARγ [4] is listed as “did not activate PPARγ”.

Take “Methyl 2-iodo-3,11-dioxo-18β-oleana-1,12-diene-30-oate [β-IDODA-Me]”: the “PPARγ-dependent transactivation (luciferase activity)” value in the data set on PPARγ [4] is “did not activate PPARγ”.

As for `CC1(C)CC[C@]2(C(=O)O)CC[C@]3(C)[C@H](C(=O)C=C4[C@@]5(C)C=C(C#N)C(=O)C(C)(C)[C@@H]5CC[C@]43C)[C@@H]2C1` [CDDO, 2-cyano-3,12-dioxo-oleana-1, 9(11)-diene-28-oic acid, reference compound], the caveolin-1 protein expression result in the data set on SW480 cells (SW480, treatment for 3 days) is recorded as “induce caveolin-1 protein”. In the data set with PPARγ [5], the “luciferase activity with GAL4-PPARγ/GAL4-Luc” value was “induced luciferase activity”.

For `COC(=O)[C@@]1(C)CC[C@]2(C)CC[C@]3(C)C(=CC(=O)[C@@H]4[C@@]5(C)C=C(C#N)C(=O)C(C)(C)[C@@H]5CC[C@]43C)[C@H]2C1` [α-CDODA-Me, Methyl 2-cyano-3,11-dioxo-18α-oleana-1,12-dien-30-oate], the IC50 with SW480 colon cancer cells is 0.5 µM; in [6], 0.5 to 1 µM.

`CC1(C)C(=O)C(C#N)=C[C@]2(C)[C@H]3C(=O)C=C4[C@@H]5C[C@@](C)(C(=O)O)CC[C@]5(C)CC[C@@]4(C)[C@]3(C)CC[C@@H]12` [β-CDODA, 2-cyano-3,11-dioxo-18β-oleana-1,12-dien-30-oic acid]: the melting point is 195 to 197 °C. Moreover, the IC50 with SW480 colon cancer cells lay in the range of 2.5 to 5 µM. Besides, the IC50 in the data set on HT-29 colon cancer cells is 1 µM. Besides, in the data set with PPARγ [1] (1.0, 2.5, 5.0 β-CDODA-Me or 10, 20, 30 μM β-CDODA, 10 μM T007), the “induced luciferase activity after cotreatment with PPARγ antagonist T007” value is recorded as “inhibited”. In addition, in the data set on PPARγ [1] (20-30 μM), the “increase in luciferase activity (PPARγ activation)” value was under 4.5 fold. Moreover, in the data set with PPARγ [2], the “PPARγ transactivation (GAL4-PPARγ/GAL4-Luc)” value is “induced transactivation”. The “transactivation of PPRE3-Luc” value at PPARγ [7] was “induced transactivation”. For the same molecule, the “PPRE3-Luc transactivation after cotreatment with PPARγ antagonists T007 and GW9662” value on PPARγ [7] (10 μM antagonist) is given as “inhibited”. In the data set on SW480 cells (SW480, 24 hr), the “concentration at which KLF4 is induced” value is 10 to 20 µM. Besides, the PARP cleavage entry with SW480 cells (SW480, 24 hr, 10-40 μM) is listed as “observed”.
